We go through 15 molecules from patent US8476298B2 (Exelixis, Inc., priority 2003, dated 2013).

Test [1] deals with T1, Flt-4 (baculovirus expressed human Flt-4 kinase domain D725-R1298) (Homo sapiens, UniProt P35916).
T1 construct: human Flt-4 kinase domain D725-R1298; host or cells: baculovirus expression
Kind of test: flt-4 Alphascreen Tyrosine Kinase assay.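 Also: AlphaScreen chemiluminescence read-out of biotinylated poly(Glu,Tyr) 4:1 phosphorylation via streptavidin donor and PY100 anti-phosphotyrosine acceptor beads, ATP near KM, 1 hr kinase reaction, 10-point dose-response.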 Format: biochemical. The note with it: read-out: flt4 IC50. Background: In Alpha technology, singlet oxygen from a donor bead excites a nearby acceptor bead.

Test [2] addresses T2, KDR (baculovirus expressed human KDR kinase domain D807-V1356) (Homo sapiens, UniProt P35968).
T2 construct: human KDR kinase domain D807-V1356; host or cells: baculovirus expression
As to the kind of experiment: biochemical.

The target of test [3] is T3, Flt-3 (baculovirus expressed human Flt-3 kinase domain R571-S993) (Homo sapiens, UniProt P36888).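 Also: Luciferase-coupled chemiluminescent kinase assay, activity read as percent ATP left after a 3 h reaction at room temperature, ATP near KM, 10-point dose-response.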
T3 construct: human Flt-3 kinase domain R571-S993; host or cells: baculovirus expression
T3 sequence (P36888 571-993): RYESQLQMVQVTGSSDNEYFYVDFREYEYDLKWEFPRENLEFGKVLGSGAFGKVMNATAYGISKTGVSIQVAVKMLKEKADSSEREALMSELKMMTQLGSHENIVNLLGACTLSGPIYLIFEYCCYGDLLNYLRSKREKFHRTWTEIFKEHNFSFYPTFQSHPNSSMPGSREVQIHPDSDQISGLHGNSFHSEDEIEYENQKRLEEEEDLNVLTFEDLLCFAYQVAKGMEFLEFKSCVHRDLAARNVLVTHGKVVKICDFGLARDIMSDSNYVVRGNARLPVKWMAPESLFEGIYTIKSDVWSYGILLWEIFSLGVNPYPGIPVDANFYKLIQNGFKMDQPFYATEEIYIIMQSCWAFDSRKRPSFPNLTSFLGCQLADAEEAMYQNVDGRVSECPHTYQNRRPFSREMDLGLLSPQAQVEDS
Kind of test: biochemical. The note with it: read-out: flt3 IC50.

For a further test, the target named is c-Kit kinase (Homo sapiens, UniProt P10721). As to the kind of experiment: c-Kit AlphaScreen kinase assay.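 Also: c-Kit kinase phosphorylating biotinylated poly(Glu,Tyr), ATP near its KM, 1 h reaction at ambient temperature, AlphaScreen chemiluminescence with streptavidin donor and anti-phosphotyrosine acceptor beads, 10-point inhibitor titration.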 Format: biochemical.
Chain of c-Kit kinase (P10721 26-976): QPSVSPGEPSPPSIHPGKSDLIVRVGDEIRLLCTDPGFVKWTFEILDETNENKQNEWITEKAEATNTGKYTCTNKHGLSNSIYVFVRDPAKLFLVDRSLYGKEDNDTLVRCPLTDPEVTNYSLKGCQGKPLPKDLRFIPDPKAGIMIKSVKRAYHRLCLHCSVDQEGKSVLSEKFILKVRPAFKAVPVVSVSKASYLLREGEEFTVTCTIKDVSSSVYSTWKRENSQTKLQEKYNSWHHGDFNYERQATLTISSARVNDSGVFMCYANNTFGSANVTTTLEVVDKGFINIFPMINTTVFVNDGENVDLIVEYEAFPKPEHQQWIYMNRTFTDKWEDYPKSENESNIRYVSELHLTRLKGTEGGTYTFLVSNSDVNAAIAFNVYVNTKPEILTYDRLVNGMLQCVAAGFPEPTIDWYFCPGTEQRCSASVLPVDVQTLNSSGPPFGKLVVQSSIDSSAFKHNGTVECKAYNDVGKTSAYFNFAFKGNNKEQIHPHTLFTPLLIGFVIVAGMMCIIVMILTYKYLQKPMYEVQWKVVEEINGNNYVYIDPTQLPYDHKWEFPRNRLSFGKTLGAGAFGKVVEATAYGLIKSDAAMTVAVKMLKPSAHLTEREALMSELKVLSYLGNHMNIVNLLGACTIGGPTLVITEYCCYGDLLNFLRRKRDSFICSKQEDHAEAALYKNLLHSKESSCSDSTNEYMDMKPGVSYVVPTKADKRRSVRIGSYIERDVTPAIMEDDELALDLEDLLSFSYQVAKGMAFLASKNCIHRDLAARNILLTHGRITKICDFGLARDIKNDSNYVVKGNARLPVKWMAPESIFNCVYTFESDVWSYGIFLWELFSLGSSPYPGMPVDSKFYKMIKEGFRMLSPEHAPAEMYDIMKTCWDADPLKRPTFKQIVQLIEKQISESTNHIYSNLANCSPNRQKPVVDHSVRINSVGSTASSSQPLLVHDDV
For test [4], the target named is T4, c-Met (baculovirus expressed human c-Met kinase domain P948-S1343) (Homo sapiens, UniProt P08581).
T4 construct: human c-Met kinase domain P948-S1343; host or cells: baculovirus expression
T4 sequence (P08581 1011-1343 limits assumed): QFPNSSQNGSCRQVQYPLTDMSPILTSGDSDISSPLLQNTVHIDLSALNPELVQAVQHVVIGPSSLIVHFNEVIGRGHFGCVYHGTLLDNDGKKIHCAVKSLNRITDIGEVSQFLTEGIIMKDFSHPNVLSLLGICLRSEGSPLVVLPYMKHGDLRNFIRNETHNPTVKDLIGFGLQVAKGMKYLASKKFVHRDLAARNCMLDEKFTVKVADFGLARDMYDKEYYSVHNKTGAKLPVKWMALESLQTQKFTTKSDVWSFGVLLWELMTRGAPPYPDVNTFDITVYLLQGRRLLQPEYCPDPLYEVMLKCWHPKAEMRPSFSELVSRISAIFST
Kind of test: c-Met Luciferase-Coupled Chemiluminescent Kinase assay (LCCA).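 Also: kinase activity read as percent ATP left after reaction, by luciferase-luciferin chemiluminescence, with 1 µM ATP and 1 µM poly-EY substrate, 2 h at ambient temperature, 10-point dose-response.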 Format: biochemical.

The mark [5] stands for this setting: Table 4, inhibition as IC50 class.

Like-named read-outs stand apart in the source and are kept apart here.

T1 sequence (P35916 725-1298 isoform P35916-1): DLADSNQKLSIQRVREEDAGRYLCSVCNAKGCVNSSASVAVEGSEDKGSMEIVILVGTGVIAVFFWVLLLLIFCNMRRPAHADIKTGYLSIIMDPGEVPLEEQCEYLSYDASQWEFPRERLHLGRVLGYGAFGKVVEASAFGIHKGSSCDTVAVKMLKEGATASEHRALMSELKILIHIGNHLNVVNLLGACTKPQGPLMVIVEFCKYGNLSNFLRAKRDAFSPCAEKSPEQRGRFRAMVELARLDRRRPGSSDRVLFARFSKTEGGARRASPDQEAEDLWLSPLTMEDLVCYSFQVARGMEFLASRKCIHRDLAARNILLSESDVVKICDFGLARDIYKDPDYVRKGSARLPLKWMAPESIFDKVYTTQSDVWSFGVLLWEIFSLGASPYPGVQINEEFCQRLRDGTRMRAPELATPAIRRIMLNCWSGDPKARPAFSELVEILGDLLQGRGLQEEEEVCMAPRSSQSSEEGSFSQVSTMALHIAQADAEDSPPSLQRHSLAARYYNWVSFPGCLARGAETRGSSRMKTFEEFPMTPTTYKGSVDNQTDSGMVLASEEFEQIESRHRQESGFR
T2 sequence (P35968 807-1356): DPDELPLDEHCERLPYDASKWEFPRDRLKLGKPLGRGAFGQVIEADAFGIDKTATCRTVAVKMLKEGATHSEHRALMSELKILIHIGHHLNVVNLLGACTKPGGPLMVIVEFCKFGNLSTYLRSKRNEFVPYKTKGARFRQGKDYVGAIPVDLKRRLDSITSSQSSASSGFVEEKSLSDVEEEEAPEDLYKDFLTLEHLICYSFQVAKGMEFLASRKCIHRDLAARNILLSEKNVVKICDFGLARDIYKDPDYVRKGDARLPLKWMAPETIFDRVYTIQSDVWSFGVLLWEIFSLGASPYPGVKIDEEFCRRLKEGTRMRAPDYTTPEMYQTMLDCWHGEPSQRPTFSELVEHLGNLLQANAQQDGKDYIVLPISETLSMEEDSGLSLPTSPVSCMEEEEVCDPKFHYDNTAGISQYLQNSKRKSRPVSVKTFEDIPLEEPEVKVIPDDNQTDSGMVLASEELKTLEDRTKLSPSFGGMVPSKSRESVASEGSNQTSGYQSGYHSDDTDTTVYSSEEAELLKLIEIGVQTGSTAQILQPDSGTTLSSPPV

As for `COc1cc2nccc(Oc3ncc(NC(=O)C(C)(C)C(=O)Nc4ccc(F)cc4)cc3Cl)c2cc1OC` [Example 292, N-(6-{[6,7-bis(methyloxy)quinolin-4-yl]oxy}-5-chloropyridin-3-yl)-N′-(4-fluorophenyl)-2,2-dimethylpropanediamide], the IC50 in test [1] was 50 to 500 nM; in test [2], 50 to 500 nM; in test [3], < 50 nM; on c-Kit kinase, 50 to 500 nM; in test [4], 50 to 500 nM.
Consider `COc1cc2c(Oc3ccc(NC(=O)C4(C(=O)Nc5ccc(F)cc5)CC4)c(C)c3)ccnc2cc1OCCCN1CCOCC1` [Example 331, N-(4-fluorophenyl)-N′-[2-methyl-4-({6-(methyloxy)-7-[(3-morpholin-4-ylpropyl)oxy]quinolin-4-yl}oxy)phenyl]cyclopropane-1,1-dicarboxamide], for which the IC50 in test [1] was < 50 nM; in test [2], < 50 nM; in test [3] it was 50 to 500 nM; against c-Kit kinase it was < 50 nM; in test [4] it was < 50 nM.
For the molecule `COc1cc2c(Oc3ccc(NC(=O)C(=O)NC(C)c4ccc(F)cc4)cc3F)ccnc2cc1OCC1CCNCC1` (stereo not drawn) [Example 283, N-[3-fluoro-4-({6-(methyloxy)-7-[(piperidin-4-ylmethyl)oxy]quinolin-4-yl}oxy)phenyl]-N′-[1-(4-fluorophenyl)ethyl]ethanediamide], the IC50 in test [1] was 50 to 500 nM; in test [2] it was < 50 nM; in test [3], < 50 nM; against c-Kit kinase, 50 to 500 nM; in test [4] it was < 50 nM.
With `CCN(CC)CCOc1cc2nccc(Oc3ccc(NC(=O)C4(C(=O)Nc5ccc(F)cc5)CCC4)cc3F)c2cc1OC` [Example 307, N-(4-{[7-{[2-(diethylamino)ethyl]oxy}-6-(methyloxy)quinolin-4-yl]oxy}-3-fluorophenyl)-N′-(4-fluorophenyl)cyclobutane-1,1-dicarboxamide], the IC50 in test [1] was < 50 nM; in test [2], < 50 nM; in test [3] it was 50 to 500 nM; against c-Kit kinase, < 50 nM; in test [4], < 50 nM.
As to `COc1cc2nccc(Oc3ccc(NC(=O)C4(C(=O)Nc5ccc(F)cc5)CC4)c(C)n3)c2cc1OC` [Example 306, N-(6-{[6,7-bis(methyloxy)quinolin-4-yl]oxy}-2-methylpyridin-3-yl)-N′-(4-fluorophenyl)cyclopropane-1,1-dicarboxamide], the IC50 is 50 to 500 nM in test [1]; 50 to 500 nM in test [2]; 500 to 5000 nM in test [3]; 50 to 500 nM at c-Kit kinase; < 50 nM in test [4].
On to `CCN(C)C(=O)C(=O)Nc1ccc(Oc2ccnc3cc(OCC4CCNCC4)c(OC)cc23)c(F)c1` [Example 300, N-ethyl-N′-[3-fluoro-4-({6-(methyloxy)-7-[(piperidin-4-ylmethyl)oxy]quinolin-4-yl}oxy)phenyl]-N-methylethanediamide], for which the IC50 in test [1] is 50 to 500 nM; in test [2] it was 50 to 500 nM; in test [3] it was 50 to 500 nM; at c-Kit kinase, 500 to 5000 nM; in test [4] it was < 50 nM.
As for `COc1cc2nccc(Oc3ccc(NC(=O)C4(C(=O)Nc5ccc(F)cc5)CC4)cc3F)c2cc1OCCCN1CCOCC1` [Example 322, N-[3-fluoro-4-({7-(methyloxy)-6-[(3-morpholin-4-ylpropyl)oxy]quinolin-4-yl}oxy)phenyl]-N′-(4-fluorophenyl)cyclopropane-1,1-dicarboxamide], the IC50 (in test [1]; in test [2]; in test [3]; at c-Kit kinase; in test [4]) was < 50 nM in each case.
For `COc1cc2nccc(Oc3ccc(NC(=O)C4(C(=O)Nc5ccc(F)cc5)CC4)c(C)c3)c2cc1OC` [Example 317, N-(4-{[6,7-bis(methyloxy)quinolin-4-yl]oxy}-2-methylphenyl)-N′-(4-fluorophenyl)cyclopropane-1,1-dicarboxamide], the IC50 in test [1] was < 50 nM; in test [2], < 50 nM; in test [3], 500 to 5000 nM; against c-Kit kinase, < 50 nM; in test [4], < 50 nM.
In the case of `COc1cc2nccc(Oc3cc(Cl)c(NC(=O)C4(C(=O)Nc5ccc(F)cc5)CC4)cc3F)c2cc1OC` [Example 337, N-(4-{[6,7-bis(methyloxy)quinolin-4-yl]oxy}-2-chloro-5-fluorophenyl)-N′-(4-fluorophenyl)cyclopropane-1,1-dicarboxamide], the IC50 was 500 to 5000 nM in test [1]; 50 to 500 nM in test [2]; 500 to 5000 nM in test [3]; 50 to 500 nM on c-Kit kinase; < 50 nM in test [4].
In the case of `CCN(CC)CCCOc1cc2nccc(Oc3ccc(NC(=O)C4(C(=O)Nc5ccc(F)cc5)CC4)cc3F)c2cc1OC` [Example 336, N-(4-{[7-{[3-(diethylamino)propyl]oxy}-6-(methyloxy)quinolin-4-yl]oxy}-3-fluorophenyl)-N′-(4-fluorophenyl)cyclopropane-1,1-dicarboxamide], the IC50 (in test [1]; in test [2]; in test [3]; against c-Kit kinase; in test [4]) was < 50 nM throughout.
On to `COc1cc2c(Oc3ncc(NC(=O)CC(=O)Nc4ccc(F)cc4)cc3Cl)ccnc2cc1OCCCN1CCOCC1` [Example 266, N-[5-chloro-6-({6-(methyloxy)-7-[(3-morpholin-4-ylpropyl)oxy]quinolin-4-yl}oxy)pyridin-3-yl]-N′-(4-fluorophenyl)propanediamide], for which the IC50 in test [1] (setting [5]) was 50 to 500 nM; in test [2] (setting [5]) it was 50 to 500 nM; in test [3] (setting [5]), < 50 nM; against c-Kit kinase (setting [5]), 50 to 500 nM; in test [4] (setting [5]), < 50 nM.
Consider `COc1cc2c(Oc3ccc(NC(=O)C(=O)NCCc4ccccc4)cc3F)ncnc2cc1OCC1CCNCC1` [Example 275, N-[3-fluoro-4-({6-(methyloxy)-7-[(piperidin-4-ylmethyl)oxy]quinazolin-4-yl}oxy)phenyl]-N′-(2-phenylethyl)ethanediamide], for which the IC50 (in test [1] (setting [5]); in test [2] (setting [5]); in test [3] (setting [5]); on c-Kit kinase (setting [5]); in test [4] (setting [5])) was < 50 nM in each case.
Consider `COc1cc2nccc(Oc3cc(C)c(NC(=O)C4(C(=O)Nc5ccc(F)cc5)CC4)cc3F)c2cc1OC` [Example 328, N-(4-{[6,7-bis(methyloxy)quinolin-4-yl]oxy}-5-fluoro-2-methylphenyl)-N′-(4-fluorophenyl)cyclopropane-1,1-dicarboxamide], for which the IC50 in test [1] is 500 to 5000 nM; in test [2], 50 to 500 nM; in test [3], 500 to 5000 nM; against c-Kit kinase, 50 to 500 nM; in test [4] it was < 50 nM.
For `COc1cc2nccc(Oc3ncc(NC(=O)CC(=O)Nc4ccccc4)cc3Cl)c2cc1OC` [Example 291, N-(6-{[6,7-bis(methyloxy)quinolin-4-yl]oxy}-5-chloropyridin-3-yl)-N′-phenylpropanediamide], the IC50 in test [1] was 500 to 5000 nM; in test [2], 500 to 5000 nM; in test [3], < 50 nM; against c-Kit kinase it was 50 to 500 nM; in test [4], < 50 nM.
On to `COc1cc2c(Oc3ccc(NC(=O)C(=O)NCC(c4ccccc4)c4ccccc4)cc3F)ccnc2cc1OCC1CCNCC1` [Example 227, N-(2,2-diphenylethyl)-N′-[3-fluoro-4-({6-(methyloxy)-7-[(piperidin-4-ylmethyl)oxy]quinolin-4-yl}oxy)phenyl]ethanediamide], for which the IC50 in test [1] (setting [5]) is 50 to 500 nM; in test [2] (setting [5]) it was 50 to 500 nM; in test [3] (setting [5]), < 50 nM; against c-Kit kinase (setting [5]) it was 50 to 500 nM; in test [4] (setting [5]), < 50 nM.

The term IC50 denotes the concentration that gives 50% inhibition.
